Reference: patent US20230372481A1 (priority 2020, published 2023)

Experiments:
[1] = system: PBMCs of COVID-19 convalescent donors; assay: Proliferation assay with CFSE in the presence of dexamethasone; type: cell-based, human; details: dexamethasone 10-7-10-6 M
Description: Around 2 million cells where incubated in a P24 plaque in 1 ml of supplemented medium with 1.5% v/v PHA (Phytohemagglutinin M form. Ref. 10576015), Mouse Anti-Human CD3 (Clone OKT3; BD Biosciences, Ref: 566685; final concentration of 0.05 μg/ml) and CD28/CD49d Purified (Clone L293 L25 RUO GMP) (BD Biosciences. Ref. 347690; final concentration 5 μg/ml).
The cells where incubated at 37° C. for 3 days and finally a CFSE proliferation assay (CellTrace™ CFSE Cell Proliferation Kit, Invitrogen, Ref.) was performed to determine if high doses of the drug decrease the division index of the cells. The cells were stained with CFSE and the different cell surface antibodies. Then, cell acquisition was performed using a Navios cytometer (Beckman Coulter), acquiring an average of 200,000 cells. The analysis was made using FlowJo 10.7.1 (FlowJoLLC). N=4 mean of the results was performed.

[2] = system: PBMCs of COVID-19 convalescent donors; assay: Secretion of IFNγ in the presence of dexamethasone with peptivators for SARS-COV-2; type: cell-based, human; details: three SARS-CoV-2 peptides
Description: Then they were mixed with PepTivators for SARS-CoV2 (Miltenyi Biotec. PepTivator Prot_M, Ref. 130-126-702; PepTivator Prot_N, Ref. 130-126-698 & PepTivator Prot_S, Ref. 130-126-700. Final concentration of 0.6 nmol/ml) for 5 hours at 37° C.; then IFNγ production of T cells were measured as before using the Miltenyi Biotec IFNg Detection Kit, Ref: 130-054-202. In all cases there was a basal condition, without peptivators and the cells where previously incubated with mouse Anti-Human CD3 (Clone OKT3; BD Biosciences, Ref:
566685; final concentration of 2.8 μg/ml and CD28/CD49d Purified (Clone L293 L25 RUO GMP) (BD Biosciences. Ref. 347690; final concentration 5 μg/ml). Cell acquisition was performed using a Navios cytometer (Beckman Coulter), acquiring an average of 200,000 cells. The analysis was made using FlowJo 10.7.1 (FlowJoLLC). N=3, mean of the results was performed.

[3] = DEX 10^-7M, 72 hours (D3), listed as dexamethasone

C[C@@H]1C[C@H]2[C@@H]3CCC4=CC(=O)C=C[C@]4(C)[C@@]3(F)[C@@H](O)C[C@]2(C)[C@@]1(O)C(=O)CO [DEX, dexamethasone]
Reduction of proliferation within the CD45RA− memory T cells [1]: 0-5%
Percentage of IFNg, CD45RA+ ([2]; DEX 10^-6M, 24 hours (D1)): 0.00%
Percentage of IFNg, CD45RA+CD3+ ([2]; DEX 10^-6M, 24 hours (D1)): 0.00%
Percentage of IFNg, CD45RA+CD3+CD4+ ([2]; DEX 10^-6M, 24 hours (D1)): 0.32%
Percentage of IFNg, CD45RA+CD3+CD8+ ([2]; DEX 10^-6M, 24 hours (D1)): 0.00%
Percentage of IFNg, CD45RA− ([2]; DEX 10^-6M, 24 hours (D1)): 2.0%
Percentage of IFNg, CD45RA− CD3+ ([2]; DEX 10^-6M, 24 hours (D1)): 0.7%
Percentage of IFNg, CD45RA− CD3+CD4+ ([2]; DEX 10^-6M, 24 hours (D1)): 1.1%
Percentage of IFNg, CD45RA− CD3+CD8+ ([2]; DEX 10^-6M, 24 hours (D1)): 0.1%
Percentage of IFNg, CD45RA+ ([2]; DEX 10^-6M, 72 hours (D3)): 0.61%
Percentage of IFNg, CD45RA+CD3+ ([2]; DEX 10^-6M, 72 hours (D3)): 1.06%
Percentage of IFNg, CD45RA+CD3+CD4+ ([2]; DEX 10^-6M, 72 hours (D3)): 1.43%
Percentage of IFNg, CD45RA+CD3+CD8+ ([2]; DEX 10^-6M, 72 hours (D3)): 1.29%
Percentage of IFNg, CD45RA− ([2]; DEX 10^-6M, 72 hours (D3)): 2.68%
Percentage of IFNg, CD45RA− CD3+ ([2]; DEX 10^-6M, 72 hours (D3)): 3.27%
Percentage of IFNg, CD45RA− CD3+CD4+ ([2]; DEX 10^-6M, 72 hours (D3)): 3.04%
Percentage of IFNg, CD45RA− CD3+CD8+ ([2]; DEX 10^-6M, 72 hours (D3)): 4.50%
Percentage of IFNg, CD45RA+ ([2]; DEX 10^-7M, 24 hours (D1)): 0.27%
Percentage of IFNg, CD45RA+CD3+ ([2]; DEX 10^-7M, 24 hours (D1)): 0.40%
Percentage of IFNg, CD45RA+CD3+CD4+ ([2]; DEX 10^-7M, 24 hours (D1)): 0.11%
Percentage of IFNg, CD45RA+CD3+CD8+ ([2]; DEX 10^-7M, 24 hours (D1)): 1.77%
Percentage of IFNg, CD45RA− ([2]; DEX 10^-7M, 24 hours (D1)): 5.9%
Percentage of IFNg, CD45RA− CD3+ ([2]; DEX 10^-7M, 24 hours (D1)): 1.7%
Percentage of IFNg, CD45RA− CD3+CD4+ ([2]; DEX 10^-7M, 24 hours (D1)): 2.4%
Percentage of IFNg, CD45RA− CD3+CD8+ ([2]; DEX 10^-7M, 24 hours (D1)): 2.6%
Percentage of IFNg, CD45RA+ ([2]; DEX 10^-7M, 72 hours (D3)): 2.08%
Percentage of IFNg, CD45RA+CD3+ ([2]; DEX 10^-7M, 72 hours (D3)): 5.12%
Percentage of IFNg, CD45RA+CD3+CD4+ ([2]; DEX 10^-7M, 72 hours (D3)): 3.29%
Percentage of IFNg, CD45RA+CD3+CD8+ ([2]; DEX 10^-7M, 72 hours (D3)): 3.91%
Percentage of IFNg, CD45RA− ([2]; DEX 10^-7M, 72 hours (D3)): 7.21%
Percentage of IFNg, CD45RA− CD3+ ([2]; DEX 10^-7M, 72 hours (D3)): 8.03%
Percentage of IFNg, CD45RA− CD3+CD4+ ([2]; DEX 10^-7M, 72 hours (D3)): 7.06%
Percentage of IFNg, CD45RA− CD3+CD8+ ([2]; DEX 10^-7M, 72 hours (D3)): 8.67%
Percentage of IFNg, CD45RA− [2, 3]: 2.08%
Percentage of IFNg, CD45RA− CD3+ [2, 3]: 5.12%
Percentage of IFNg, CD45RA− CD3+CD4+ [2, 3]: 3.29%
Percentage of IFNg, CD45RA− CD3+CD8+ [2, 3]: 3.91%
